US20220145303A1, “FRAGILE X MENTAL RETARDATION PROTEIN INTERFERING OLIGONUCLEOTIDES AND METHODS OF USING SAME” (Nogra Pharma Limited, priority 2019, published 2022)

Key:
CRC cells = assay: Antisense-induced cell death after pan-caspase inhibitor pre-treatment (PI/AnnV flow cytometry); assay type: cell-based, human; conditions: Q-VD-OPh 1 μM pre-treatment, FIG. 4C
Method: (§1) Immunotools, Friesoythe, Germany) according to the manufacturer's instructions, and incubated with […] of propidium iodide (PI) for 30 min at 4° C. Cells were also transfected with either FMRP sense oligonucleotide or FMRP AS oligonucleotide (final concentration 100 nM) for 36 hours and analyzed for activated caspase 3 and caspase 8. […] Additionally, 36 hours (FIGS. 4F and 4G) or 48 hours post-transfection (FIGS. 4D and 4E), cells were pulsed with […] bromodeoxyuridine for 60 minutes, fixed in 70% cold ethanol, and stored at −20° C. for at least 3 hours. […] Fluorescence was measured using Gallios Flow Cytometer (Beckman Coulter, Life Sciences, Pasadena, Calif., USA) and analyzed using Kaluza software (Beckman Coulter). Viable cells were considered as AV^−/PI^− cells.

FMRP [1] = assay: FMRP knockdown: Western blot of FMRP after transfection with FMRP antisense or sense oligonucleotide; assay type: cell-based, human; conditions: 48 hours, AS 0.5-100 nM, S 100 nM
Method: Total proteins were extracted from mouse colonic tissues, and lysed on ice in buffer containing 10 mM HEPES [pH 7.9], 10 mM KCl, 0.1 mM EthyleneDiamineTetraacetic Acid (EDTA), 0.2 mM Ethylene Glycol-bis (β-aminoethyl ether)-N,N,N′,N′-Tetraacetic Acid (EGTA) and 0.5% Nonidet P40 supplemented with 1 mM dithiothreitol (DTT), […], […], 1 mM phenylmethylsulfonyl fluoride (PMSF), 1 mM Na3VO4, and 1 mM NaF. Lysates were clarified by centrifugation and separated on sodium dodecyl sulphate (SDS)-polyacrylamide gel electrophoresis. Blots were incubated with antibodies against: FMRP (Cell Signaling, Danvers, Mass.), followed by a secondary antibody conjugated to horseradish peroxidase (Dako, Milan, Italy). After analysis, each blot was stripped and incubated with a mouse-anti-human monoclonal β-actin antibody (Sigma-Aldrich) to ascertain equivalent loading of the lanes.
Human CRC cell lines, DLD-1 and HCT-116, were obtained from the American Type Culture Collection (ATCC, Manassas, Va.) and cultured in RPMI 1640 (DLD-1) and McCoy's 5A (HCT-116) medium, respectively. All media were supplemented with 10% fetal bovine serum, 1% penicillin/streptomycin (both from Lonza, Verviers, Belgium). The normal human colon epithelial cell line (HCEC-1ct) was obtained from EVERCYTE GmbH (Vienna, Austria) and cultured in ColoUp® medium (EVERCYTE GmbH). Cells were maintained in a 37° C., 5% CO2, fully humidified incubator. Cell line lysates were prepared and analyzed by SDS-polyacrylamide gel electrophoresis/immunoblot using methods as previously described in Example 2. For immunofluorescent staining, cell lines were fixed with 3.7% formaldehyde for 10 minutes at 4° C., permeabilized with 0.1% Triton for 10 minutes at room temperature and blocked (1% bovine serum albumin, Tween 0.1%, glycine 2%) for 1 hour at room temperature. Fixed and blocked cells were incubated with anti-FMRP monoclonal antibody (1:500, Cell Signaling, Danvers, Mass.) overnight at 4° C. After washing with PBS, secondary antibody goat anti-rabbit Alexa 488 (1:2000, A11008; Invitrogen) was applied for 1 hour at room temperature. Slides were washed with PBS, mounted using Prolong Gold® anti-fade reagent with 4′,6-diamidino-2-phenylindole (P36931; Invitrogen) and analyzed by a Leica DMI4000 B microscope with Leica application suite software (V4.6.2).
Phosphorothioate single-stranded antisense oligonucleotides complementary to human FMRP [5′-[…]-3′ (SEQ ID NO: 6)] and single-stranded sense oligonucleotides [5′-[…]-3′ (SEQ ID NO: 15)] were synthesized. CRC cell lines and HCEC-1ct cells were transfected with either FMRP antisense (AS)(final concentration 0.5-100 nM) or FMRP sense oligonucleotide (S) (final concentration100 nM) for 24 and 48 hours, using Opti-MEM medium and lipofectamine 3000 reagent (Thermo Fisher Scientific, Waltham, Mass., USA) according to the manufacturer's instructions.

caspase 3 = assay: Activated caspase 3 by flow cytometry in CRC cells; assay type: cell-based, human; conditions: oligonucleotide 100 nM 36 hours, staurosporin 1 μM, FIGS. 4A, 4B
Method: as §1

FMRP [2] = assay: Western blot of FMRP after CREB antisense transfection; assay type: cell-based; conditions: human CRC cell lines, CREB antisense 200 nM, 24 or 48 hours, FIGS. 7D, 7F
Method: (§2) To asses if CREB regulates FMRP expression, CRC cell lines were transfected with either CREB antisense (ASc) (5′-[…]-3′) (SEQ ID NO: 16) or CREB sense (Ss) (5′-[…]-3′)(SEQ ID NO: 17)(final concentration 200 nM) for 24 or 48 hours. mRNA and total protein lysates were prepared and analyzed by RT-PCR and Western blot, respectively, as previously described in Examples 1 to 3.

CREB = assay: Western blot of CREB after CREB antisense transfection; assay type: cell-based; conditions: human CRC cell lines, 200 nM, 24 or 48 hours, vs untreated or sense control, FIGS. 7D, 7E
Method: as §2

human CRC cell lines = assay: Antisense-induced cell death with RIPK1 or MLKL inhibitor (PI/AnnV flow cytometry); assay type: cell-based; conditions: NEC1 10 μM, NSA 1 μM, 24 hours, FIGS. 6E, 6F
Method: To confirm the association of FMRP with components of the necroptosis pathway, cells were left untreated or transfected with either FMRP antisense oligonucleotide (final concentration 0.5 nM and 100 nM) or FMRP sense oligonucleotide (final concentration 100 nM); incubated with a pMLKL inhibitor (necrosulfonamide, NSA; final concentration 1 μM)(Calbiochem); or a pRIPK1 inhibitor (necrostatinl, NEC1; final concentration 10 μM)(Cayman Chemical, Ann Arbor, Mich. USA). After 24 hours cells were collected and analyzed by Western blot, or stained with FITC-Annexin V and PI for flow cytometry analysis, as previously described in Examples 1-3.

CC(C)[C@H](NC(=O)c1ccc2ccccc2n1)C(=O)N[C@@H](CC(=O)O)C(=O)COc1c(F)cccc1F [Q-VD-OPh]
effect of pre-treatment on FMRP antisense oligonucleotide-induced cell death (CRC cells): did not alter FMRP antisense oligonucleotide-induced cell death

5′-ATGGAGGAGCTGGTGGTGGA-3′ (DNA, backbone and methylation of C not given here; further chemistry not fully specified) [sense oligonucleotide, single-stranded sense oligonucleotides, control, reference compound]
FMRP expression (FMRP [1]; DLD-1 cells, FIG. 3D): no significant inhibition
FMRP expression (FMRP [1]; HCEC-1ct cells, FIG. 3I): no significant inhibition
FMRP expression (FMRP [1]; HCT-116 cells, FIG. 3G): no significant inhibition

CN[C@@H]1C[C@H]2O[C@@](C)([C@@H]1OC)n1c3ccccc3c3c4c(c5c6ccccc6n2c5c31)C(=O)NC4 [staurosporin, reference compound]
percentage of activated caspase 3-positive cells (caspase 3): significantly increased

5′-GCATCTCCACTCTGCTGGTT-3′ (listed as DNA, chemistry not given here) [CREB antisense oligonucleotide, CREB antisense (ASc)]
FMRP protein expression (FMRP [2]): concomitant reduction in FMRP protein expression
CREB protein expression (CREB): reduced expression of CREB protein

COc1nccnc1NS(=O)(=O)c1ccc(NC(=O)/C=C/c2ccc([N+](=O)[O-])s2)cc1 [necrosulfonamide]
effect on FMRP antisense oligonucleotide-induced cell death (human CRC cell lines): protected from FMRP antisense oligonucleotide-induced cell death

CN1C(=O)C(Cc2c[nH]c3ccccc23)NC1=S (stereo not drawn) [necrostatin 1]
effect on FMRP antisense oligonucleotide-induced cell death (human CRC cell lines): protected from FMRP antisense oligonucleotide-induced cell death
